According to patent US20190292577A1, “COMPOSITIONS AND METHOD FOR THE TREATMENT OF ACNE” (ProdermIQ, Inc., priority 2018, published 2019):

Experiments:
[1] = tested on: C2 P. acnes strain; assay: P. acnes strain profiling before and after benzoyl peroxide treatment; assay type: in vivo, Propionibacterium acnes; details: after benzoyl peroxide treatment, FIG. 39
Description: A group of subjects with P. acnes populations were treated with benzoyl peroxide and divided into 3 cohorts based on the effectiveness of the treatment. Subjects in the “Decrease Cohort” experienced a decrease in P. acnes populations, subjects in the “Increase Cohort” experienced an increase in P. acnes populations, and the “Flat Cohort” experienced non-measureable variance in P. acnes populations. […] Shown is the mean proportion of P. acnes across “Increase”, “Decrease”, and “Flat” cohort. […] The Al P. acnes across is differentiated between “Increase” and “Decrease” cohort. […] The K4 & C3 P. acnes is differentiated between “Increase” and “Decrease” cohort. […] The F4 & D1 P. acnes is differentiated between “Increase” and “Decrease” cohort. […] […] The K4 and A2 P. acnes strains are more prevalent in “Decrease” cohort while the K1 strain is more prevalent in “Increase” cohort.

[2] = tested on: P. acnes; assay: Skin microbiome profiling, benzoyl peroxide versus no benzoyl peroxide; assay type: in vivo, Propionibacterium acnes; details: benzoyl peroxide applied versus no benzoyl peroxide, FIG. 3
Source text: (§1) Described herein are findings of a study of individuals comprising preadolescent females with acne, and changes in the microbiomes of the individuals with the use of benzoyl peroxide wash. Flora was taken from different areas of the faces of the individuals and studied for sensitivity to benzoyl peroxide. Inclusion criteria of the study for which results are provided herein include: • 1. Minimum of 6 acne lesions present. • 2. No prior use of prescription acne product. • 3. No prior use of over-the-counter benzoyl peroxide anti-acne agent. • 4. Ages: 7-12 • 5. Sex: Female Exclusion criteria of the study for which results are provided herein include: • 1. Significant active skin conditions on the face other than acne vulgaris (may include atopic dermatitis, psoriasis, or others). • 2. Use of oral or parenteral antibiotics within 3 months prior to the study. Sites from which samples were taken along with abbreviations for each include: • RA or RAL: Retroauricular Behind Ear • CH or CHN: Chin • CK or CKN: Cheek • FH or FHN: Forehead • AN or ANN: Ala Nasal [Outside of Nose] • CO or CON: Comedone In some embodiments, the skin microbiome of an individual subject is evaluated. Individual microbiomes vary greatly across subjects and regions of the skin. […] Samples were taken from locations on the heads of the individuals including behind the ear, chin, cheek, forehead, and outside the nose. […]

[3] = tested on: skin microbiome; assay: Site specific and overall effect of benzoyl peroxide on the skin microbiome; assay type: in vivo, human
Source text: as §1

[4] = tested on: S. mitis; assay: Skin microbiome profiling, benzoyl peroxide versus no benzoyl peroxide; assay type: in vivo; details: benzoyl peroxide applied versus no benzoyl peroxide, FIG. 3
Source text: as §1

O=C(OOC(=O)c1ccccc1)c1ccccc1 [benzoyl peroxide]
Prevalence of the C2 P. acnes strain after treatment [1]: becomes more prevalent
P. acnes levels within the microbiome [2]: decreased
Skin site impacted the most by benzoyl peroxide ([3]; among all sites tested, from the site specific prediction models of Table 2): cheek gets impacted the most
Impact on overall microbiome diversity ([3]; benzoyl peroxide treatment): does not impact the overall microbiome diversity
S. mitis relative proportion in the microbiome [4]: increased
